The record followed here is patent publication US6627772B2, “Preparation of N-[2-(carboxymethoxy) ethyl]-N-(carboxymethyl) glycine” (The Dow Chemical Company, priority 1999, dated 2003).

Data set [1] is described as follows: Copper titration with Murexide indicator. Format: physicochemical. The following applies: 2 g (0.009 mmol) in 100 mL water, 0.01 molar copper chloride, approximately pH 8, sodium acetate buffer. The protocol:
Copper titration value is used to measure the extent of biodegradation of the chelating agents during the procedure. Titration is performed using ammonium purpurate (indicator for complexometric titration, commercially available from Aldrich Chemical Co., Inc. under the trade designation Murexide) at approximately pH 8, and using sodium acetate as buffer. Titration of […] N-[2-(carboxymethoxy)ethyl]-N-(carboxymethyl)glycine (0.009 mmol) in 100 mL water with 0.01 molar copper chloride gives an endpoint of 0.99 mL, representing a 1:1 chelation of copper. Analysis is performed daily for a period of 28 days.

A short description of data set [2]: Calcium oxalate titration (calcium chelation capacity). Format: physicochemical. The protocol: The applicability of N-[2-(carboxymethoxy)ethyl]-N-(carboxymethyl)glycine for use in hard surface cleaners, is measured by the calcium oxalate titration.
For titration with calcium oxalate, N-[2-(carboxymethoxy)ethyl]-N-(carboxymethyl)glycine (between 1 to 2 millimoles) is placed in a 60 mL beaker. After the addition of 30 mL deionized water and 5 mL of a 3% ammonium oxalate solution, the pH is slowly brought to about 10 by the addition of 20% sodium hydroxide while stirring. The pH is then adjusted to about 11.6 with sodium hydroxide and the solution is titrated with 0.1 M CaCl2 to the first permanent turbidity. The chelation valve is then determined from the mL of titrant used based on the following calculation.
Chelation Value=(mL titrant used×molarity titrant)×100 mg CaCO3 per mmole÷sample wt. in grams×activity of sample (as acid form)
The chelation value is the mg of CaCO3 that can be chelated by one active gram of a chelant, such as N-[2-(carboxymethoxy)ethyl]-N-(carboxymethyl)glycine (IX).
The turbidity produced in the oxalate titration is due to the formation of calcium oxalate. The results for the titration of N-[2-(carboxymethoxy)ethyl]-N-(carboxymethyl)glycine in the presence of oxalate is compared with iminodiacetic acid (IDA) and given in Table II below.

Molecules are shown by their SMILES.

In turn, `O=C(O)COCCN(CC(=O)O)CC(=O)O` [(IX), N-[2-(carboxymethoxy)ethyl]-N-(carboxymethyl)glycine] returned a Copper titration endpoint in data set [1] of 0.99 mL. Also, the “Chelation value compared with IDA (in words)” value in data set [2] is reported as “far superior to IDA”. For the same compound, in data set [2] (pH about 11.6, 0.1 M CaCl2 to first permanent turbidity), the “Chelation Value” is 423 mg of CaCO3 per active gram of.
